# Measurements published in PubChem BioAssay (NCI).
#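 Briefly, cells in 96-well plates were exposed to five compound concentrations for 48 h, and endpoints were estimated by linear interpolation. GI50: concentration for 50% inhibition of growth. TGI: concentration producing complete growth inhibition.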
# Experiments:
# Test in all cases: DTP human tumour cell line panel, 48 h
# SN12C renal = tested on: SN12C renal
# SF-539 CNS = tested on: SF-539 CNS
# 786-0 renal = tested on: 786-0 renal
# UO-31 renal = tested on: UO-31 renal
# CAKI-1 renal = tested on: CAKI-1 renal
# HCT-15 colon = tested on: HCT-15 colon
# NCI-H23 lung = tested on: NCI-H23 lung
# HOP-62 NSCLC = tested on: HOP-62 NSCLC
# A498 renal = tested on: A498 renal
Compound,TGI (SN12C renal),TGI (SF-539 CNS),TGI (786-0 renal),TGI (UO-31 renal),TGI (CAKI-1 renal),TGI (HCT-15 colon),TGI (NCI-H23 lung),TGI (HOP-62 NSCLC),GI50 (SN12C renal),GI50 (SF-539 CNS),GI50 (786-0 renal),GI50 (UO-31 renal),GI50 (CAKI-1 renal),GI50 (HCT-15 colon),GI50 (A498 renal),TGI (A498 renal),GI50 (NCI-H23 lung),GI50 (HOP-62 NSCLC)
Cc1ccc(C(=O)c2nnc(C(=O)c3ccc(C)cc3)nn2)cc1,> 100 µM,> 100 µM,> 100 µM,> 100 µM,> 100 µM,> 100 µM,> 100 µM,> 100 µM,–,–,–,–,–,–,–,–,–,–
COc1ccc2c(c1)cn1c3ccc(O)cc3nc(N)c21,19.1 µM,2.72 µM,6.86 µM,10.3 µM,4.39 µM,5.99 µM,17.7 µM,8.18 µM,0.342 µM,0.237 µM,0.947 µM,0.148 µM,0.246 µM,0.0585 µM,0.498 µM,17.4 µM,0.394 µM,0.205 µM
C=CCOc1cccc(/C=C2\SC(=Nc3ccc(O)cc3)NC2=O)c1,10.1 µM,1.14 µM,7.89 µM,2.51 µM,6.43 µM,> 100 µM,31.4 µM,13.1 µM,0.953 µM,0.296 µM,1.13 µM,0.832 µM,0.466 µM,0.358 µM,0.79 µM,3.77 µM,1.01 µM,0.66 µM
C[C@@H]1C[C@H]2CC[C@H](O2)[C@H](C)C(=O)O[C@@H](C)C[C@@H]2CC[C@@H](O2)[C@@H](C)C(=O)O[C@H](C)C[C@H]2CC[C@H](O2)[C@H](C)C(=O)O[C@@H](C)C[C@@H]2CC[C@@H](O2)[C@@H](C)C(=O)O1,18.9 µM,> 100 µM,41.8 µM,–,12.8 µM,> 100 µM,–,4.78 µM,–,–,–,–,–,–,–,> 19.7 µM,–,–
CCCCCCCCCCCCCCCCN1CC2CCCCC2C1 (stereo unspecified),21.3 µM,18.6 µM,14 µM,19.2 µM,8.91 µM,61.2 µM,9.94 µM,25.7 µM,8.26 µM,5.52 µM,3.49 µM,6 µM,2.49 µM,6.79 µM,16.2 µM,30.6 µM,3.14 µM,12.5 µM
O=C1CC(c2ccc(O)cc2)C2(O1)C(=O)OC(C(O)CO)C2O (stereo unspecified),> 100 µM,> 100 µM,> 100 µM,> 100 µM,> 100 µM,> 100 µM,> 100 µM,> 100 µM,–,–,–,–,–,–,–,> 100 µM,–,–
COc1cccc2c1c(C(=O)C(=O)Nc1cc(C)no1)cn2Cc1ccc(F)cc1,> 81.8 µM,> 80 µM,> 100 µM,> 100 µM,> 45.4 µM,> 100 µM,> 84 µM,> 100 µM,8.28 µM,7.52 µM,19.2 µM,8.77 µM,5.92 µM,2.64 µM,19.6 µM,> 67.5 µM,> 40.5 µM,> 35.9 µM
O=C(O)/C=C\C(=O)N1C/C(=C\c2ccccc2Cl)C(=O)/C(=C/c2ccccc2Cl)C1,9.31 µM,8.24 µM,4.06 µM,3.72 µM,15 µM,6.44 µM,6.41 µM,8.26 µM,2.93 µM,3.01 µM,2.18 µM,1.98 µM,4.29 µM,2.3 µM,–,–,2.5 µM,3.4 µM
CCOC(=O)c1cc(NS(=O)(=O)c2ccccc2)cc(C(=O)OCC)c1,> 100 µM,> 100 µM,> 100 µM,> 100 µM,> 100 µM,> 100 µM,> 100 µM,> 100 µM,> 100 µM,> 100 µM,> 100 µM,> 100 µM,> 100 µM,> 100 µM,> 100 µM,> 100 µM,> 100 µM,> 100 µM
COc1ccc(-c2csc(N(C(=O)N3CCN(c4cc5c(cc4F)c(=O)c(C(=O)O)cn5C4CC4)CC3)c3ccccc3)n2)cc1,> 100 µM,48.7 µM,> 66 µM,–,8.76 µM,> 100 µM,18.4 µM,> 79 µM,2.95 µM,2.93 µM,1.15 µM,–,2.46 µM,3.19 µM,1.34 µM,6.42 µM,2.96 µM,1.12 µM
Oc1cccc2ccc(N/N=C/c3cc(CN4CCCCC4)c(O)c4ncccc34)nc12,12.9 µM,2.68 µM,1.7 µM,1.71 µM,2.14 µM,1.51 µM,1.45 µM,8.04 µM,0.0931 µM,0.0481 µM,0.0826 µM,0.0292 µM,0.309 µM,0.0339 µM,0.433 µM,14.1 µM,0.0485 µM,0.0456 µM
COc1ccc(-c2nc3sc4c(c3c(=O)[nH]2)CCCCCC4)cc1,> 33.2 µM,> 33.2 µM,> 33.2 µM,> 33.2 µM,> 33.2 µM,> 33.2 µM,> 33.2 µM,> 33.2 µM,> 33.2 µM,2.56 µM,8.08 µM,> 33.2 µM,> 33.2 µM,0.655 µM,0.897 µM,> 33.2 µM,> 33.2 µM,1.87 µM
COc1cc(C(=O)C/C(CCCC(=O)Nc2ccccc2[N+](=O)[O-])=N/NC(=O)c2cc3ccccc3cc2O)ccc1O,> 100 µM,> 100 µM,> 100 µM,> 100 µM,> 100 µM,> 74.3 µM,> 100 µM,> 100 µM,–,–,–,–,–,–,–,> 100 µM,–,–
CN(C)CCNc1c2c(c(NCCN(C)C)c3[nH]ccc13)C(=O)c1ccccc1C2=O,2.61 µM,3.8 µM,–,> 100 µM,6.72 µM,3.55 µM,–,9.27 µM,0.519 µM,1.01 µM,0.899 µM,2.28 µM,2.56 µM,0.168 µM,11.3 µM,25.1 µM,1.82 µM,0.894 µM
COc1ccc(-c2nn3c(-c4cc(F)c(Cl)cc4Cl)nnc3s2)cc1,> 100 µM,44.4 µM,> 100 µM,> 100 µM,> 100 µM,> 100 µM,> 100 µM,> 100 µM,43.4 µM,20.8 µM,33.4 µM,18.3 µM,37.9 µM,18.1 µM,43.4 µM,> 100 µM,29.9 µM,26.2 µM
COC(=O)[C@@]1(C)CC[C@]2(C)CC[C@]3(C)C4=CC=C5C(=CC(=O)C(O)=C5C)[C@]4(C)[C@@H](O)C[C@@]3(C)[C@@H]2C1,20.7 µM,28.8 µM,5.23 µM,16.2 µM,13.9 µM,17.7 µM,28.4 µM,25.9 µM,9.65 µM,15.7 µM,1.79 µM,5.8 µM,3.94 µM,5.07 µM,–,–,13.5 µM,13.3 µM

Compound,TGI (SN12C renal),TGI (SF-539 CNS),TGI (786-0 renal),TGI (UO-31 renal),TGI (CAKI-1 renal),TGI (HCT-15 colon),TGI (NCI-H23 lung),TGI (HOP-62 NSCLC),GI50 (SN12C renal),GI50 (SF-539 CNS),GI50 (786-0 renal),GI50 (UO-31 renal),GI50 (CAKI-1 renal),GI50 (HCT-15 colon),GI50 (A498 renal),TGI (A498 renal),GI50 (NCI-H23 lung),GI50 (HOP-62 NSCLC)
NCCn1c(=O)[nH]c(=O)[nH]c1=S,> 100 µM,> 100 µM,> 100 µM,> 100 µM,> 100 µM,> 100 µM,> 100 µM,> 100 µM,> 100 µM,> 100 µM,> 100 µM,> 100 µM,> 100 µM,96.7 µM,> 100 µM,> 100 µM,> 100 µM,> 100 µM
COc1ccc(OC)c(/C=C2\SC(=S)NC2=O)c1,77.4 µM,49.6 µM,> 100 µM,> 100 µM,61.4 µM,93 µM,68.6 µM,> 100 µM,24.8 µM,17.4 µM,30.8 µM,33.6 µM,21.9 µM,26.2 µM,–,–,23.1 µM,30.9 µM
N#Cc1c(N2CCCC2)[nH]c(=O)c(C(c2c(Cl)cccc2Cl)c2c(O)c(C#N)c(N3CCCC3)[nH]c2=O)c1O,33.9 µM,10.9 µM,> 100 µM,35.9 µM,24 µM,26.9 µM,31 µM,49.6 µM,13.6 µM,0.369 µM,4.34 µM,16.1 µM,10.7 µM,7.7 µM,–,–,11.6 µM,21.2 µM
COc1cc(OC(C)=O)cc2c(OC(C)=O)ccc(OC(C)=O)c12,> 100 µM,–,> 100 µM,> 100 µM,> 100 µM,> 100 µM,> 100 µM,> 100 µM,–,–,–,–,–,–,–,> 100 µM,–,–
COc1cc2c(c(OC)c1)C1c3ccccc3NC(=O)N1CC2 (stereo unspecified),> 100 µM,7.26 µM,> 100 µM,85.4 µM,> 100 µM,> 100 µM,> 100 µM,> 100 µM,7.27 µM,1.7 µM,4.63 µM,2.81 µM,4.62 µM,3.14 µM,–,–,3.69 µM,3.28 µM
Nc1ccccc1C#C/C=C\C#Cc1cccs1,16.7 µM,17.8 µM,35.1 µM,> 43.5 µM,21 µM,43.7 µM,41.2 µM,33.2 µM,4.62 µM,5.6 µM,13.5 µM,8.77 µM,3.75 µM,9.45 µM,–,–,14.3 µM,11.2 µM
OC(c1cc(-c2ccccc2)nc2ccc(Cl)cc12)C1CCCCN1 (stereo unspecified),10.6 µM,3.52 µM,4.57 µM,4.19 µM,5.9 µM,3.53 µM,3.42 µM,–,3.14 µM,1.84 µM,1.96 µM,1.73 µM,2.1 µM,1.84 µM,6.22 µM,20.3 µM,1.79 µM,–
CC#C[C@]1(O)CC[C@H]2[C@@H]3CCC4=CC(=O)CCC4=C3[C@@H](c3ccc4c(c3)OCO4)C[C@@]21C,464 µM,274 µM,324 µM,218 µM,–,780 µM,> 1000 µM,400 µM,83.2 µM,89.2 µM,35.8 µM,49.6 µM,–,45.4 µM,88.3 µM,268 µM,152 µM,120 µM
COc1ccc(/C=C(/C#N)C(N)=O)cc1OC,> 100 µM,> 100 µM,> 100 µM,–,> 100 µM,> 100 µM,> 100 µM,> 100 µM,–,–,–,–,–,–,–,> 100 µM,–,–
CCCCC(CC)CN=C(N)NC(N)=NCCCCCCN=C(N)NC(N)=NCC(CC)CCCC (stereo unspecified),4.39 µM,–,4.91 µM,10.1 µM,10.3 µM,16.5 µM,–,–,1.52 µM,–,2.16 µM,3.03 µM,2.93 µM,2.98 µM,–,–,–,–
COc1ccc(-c2ccc(/C=N/n3c(COc4ccc(Cl)cc4Cl)nn(CN4CCOCC4)c3=S)o2)c([N+](=O)[O-])c1,67.7 µM,62.9 µM,> 100 µM,> 100 µM,67.4 µM,> 100 µM,66.7 µM,> 100 µM,24.5 µM,18.8 µM,32.5 µM,42.7 µM,22.7 µM,26.9 µM,–,–,22.5 µM,35.9 µM
Cc1ccc(N=Nc2c(O)c(C(=O)O)cc3ccccc23)cc1C,–,> 100 µM,> 100 µM,> 100 µM,> 100 µM,> 100 µM,> 100 µM,> 100 µM,–,–,–,–,–,–,–,–,–,–
COc1ccc(-c2n/c(=C\c3c(O)[nH]c4ccc(OC)cc34)cc3c2=Nc2ccccc2-3)cc1,> 100 µM,3.4 µM,3.37 µM,56.1 µM,45 µM,–,3.97 µM,4.91 µM,4 µM,1.85 µM,1.92 µM,18 µM,8.32 µM,–,11.6 µM,25.4 µM,1.89 µM,2.36 µM
O=C(/C=C/c1ccccc1)c1cc(Br)ccc1O,29.7 µM,–,28.8 µM,22.9 µM,31.1 µM,34.9 µM,31.4 µM,46.3 µM,–,–,–,–,–,–,–,26.8 µM,–,–
CCCCCCCCCCC(C(=O)O)C1(C(=O)O)CCC(=O)O1 (stereo unspecified),> 100 µM,–,> 100 µM,> 100 µM,> 100 µM,> 100 µM,> 100 µM,> 100 µM,–,–,–,–,–,–,–,–,–,–
C=CCC[CH2][Sn]([c]1ccccc1)([c]1ccccc1)[c]1ccccc1,2.95 µM,3.52 µM,2.87 µM,3.36 µM,3.18 µM,3.07 µM,3.01 µM,3.99 µM,1.57 µM,1.94 µM,1.54 µM,1.89 µM,1.52 µM,1.52 µM,–,–,1.64 µM,2.25 µM
